{"source": "ChEMBL document CHEMBL1147026", "about": "“Synthesis of pseudopeptides based L-tryptophan as a potential antimicrobial agent” (Bioorg Med Chem Lett, 2007)", "key": {"[1]": {"system": "Candida albicans", "assay": "Antifungal activity against Candida albicans CMAH 0527 after 48 to 72 hrs by broth microdilution method", "assay_type": "functional"}, "[2]": {"system": "Proteus vulgaris", "assay": "Antimicrobial activity against Proteus vulgaris CMCC(B) 49001 upto 128 ug/mL after 24 hrs by two fold dilution method", "assay_type": "functional, organism-based"}, "[3]": {"system": "Candida albicans", "assay": "Antifungal activity against Candida albicans CMAH 0511 after 48 to 72 hrs by broth microdilution method", "assay_type": "functional"}, "[4]": {"system": "Candida albicans", "assay": "Antifungal activity against Candida albicans CMAM 0592 upto 128 ug/mL after 48 to 72 hrs by broth microdilution method", "assay_type": "functional, organism-based"}, "[5]": {"system": "Rhodotorula glutinis", "assay": "Antimicrobial activity against Rhodotorula glutinis SYM 2209 after 48 to 72 hrs by broth microdilution method", "assay_type": "functional"}, "[6]": {"system": "Micrococcus luteus", "assay": "Antimicrobial activity against Micrococcus luteus CMCC(B) 28001 upto 128 ug/mL after 24 hrs by two fold dilution method", "assay_type": "functional, organism-based"}, "[7]": {"system": "Candida albicans", "assay": "Antifungal activity against fluconazole-resistant Candida albicans CMAH 0520 after 48 to 72 hrs by broth microdilution method", "assay_type": "functional"}, "[8]": {"system": "Staphylococcus aureus", "assay": "Antibacterial activity against methicillin-resistant Staphylococcus aureus CMAH 0430 upto 128 ug/mL after 24 hrs by two fold dilution method", "assay_type": "functional, organism-based"}, "[9]": {"system": "Staphylococcus aureus", "assay": "Antibacterial activity against methicillin-resistant Staphylococcus aureus CMAH 0515 upto 128 ug/mL after 24 hrs by two fold dilution method", "assay_type": "functional, organism-based"}, "[10]": {"system": "Pseudomonas aeruginosa", "assay": "Antimicrobial activity against Pseudomonas aeruginosa ATCC 27853 upto 128 ug/mL after 24 hrs by two fold dilution method", "assay_type": "functional, organism-based"}, "[11]": {"system": "Candida albicans", "assay": "Antifungal activity against Candida albicans CMAM 0594 upto 128 ug/mL after 48 to 72 hrs by broth microdilution method", "assay_type": "functional, organism-based"}, "[12]": {"system": "Staphylococcus aureus", "assay": "Antibacterial activity against methicillin-susceptible Staphylococcus aureus ATCC 25923 after 24 hrs by two fold dilution method", "assay_type": "functional", "settings": "ATCC 25923, 24 h"}, "[13]": {"system": "Escherichia coli", "assay": "Antimicrobial activity against Escherichia coli ATCC 25922 upto 128 ug/mL after 24 hrs by two fold dilution method", "assay_type": "functional, organism-based"}, "[14]": {"system": "Aspergillus sp.", "assay": "Antifungal activity against Aspergillus sp. after 48 to 72 hrs by broth microdilution method", "assay_type": "functional", "settings": "Aspergillus sp."}, "[15]": {"system": "Candida albicans", "assay": "Antifungal activity against Candida albicans CMAM 0577 upto 128 ug/mL after 48 to 72 hrs by broth microdilution method", "assay_type": "functional, organism-based"}, "[16]": {"system": "Candida albicans", "assay": "Antifungal activity against Candida albicans CMAH 0501 after 48 to 72 hrs by broth microdilution method", "assay_type": "functional"}, "[17]": {"system": "Candida albicans", "assay": "Antifungal activity against Candida albicans CMAH 0503 after 48 to 72 hrs by broth microdilution method", "assay_type": "functional"}, "[18]": {"system": "Bacillus subtilis", "assay": "Antimicrobial activity against Bacillus subtilis after 24 hrs by two fold dilution method", "assay_type": "functional"}, "[19]": {"system": "Candida albicans", "assay": "Antifungal activity against Candida albicans CMAH 0507 after 48 to 72 hrs by broth microdilution method", "assay_type": "functional"}, "[20]": {"system": "Candida albicans", "assay": "Antifungal activity against fluconazole-resistant Candida albicans CMAM 0597 upto 128 ug/mL after 48 to 72 hrs by broth microdilution method", "assay_type": "functional, organism-based"}, "[21]": {"system": "Saccharomyces cerevisiae", "assay": "Antimicrobial activity against Saccharomyces cerevisiae upto 128 ug/mL after 48 to 72 hrs by broth microdilution method", "assay_type": "functional, organism-based"}, "[22]": {"system": "Cryptococcus neoformans", "assay": "Antifungal activity against Cryptococcus neoformans ATCC 90112 upto 128 ug/mL after 48 to 72 hrs by broth microdilution method", "assay_type": "functional, organism-based"}, "[23]": {"system": "Candida albicans", "assay": "Antifungal activity against Candida albicans CMAH 0572 upto 128 ug/mL after 48 to 72 hrs by broth microdilution method", "assay_type": "functional, organism-based"}, "[24]": {"system": "Candida albicans", "assay": "Antifungal activity against Candida albicans ATCC 10231 after 48 to 72 hrs by broth microdilution method", "assay_type": "functional"}, "[25]": {"system": "Klebsiella aerogenes", "assay": "Antibacterial activity against Enterobacter aerogenes CMCC(B) 45103 upto 128 ug/mL after 24 hrs by two fold dilution method", "assay_type": "functional, organism-based"}, "[26]": {"system": "Staphylococcus aureus", "assay": "Antibacterial activity against methicillin-resistant Staphylococcus aureus CMAH 0504 upto 128 ug/mL by two fold dilution method", "assay_type": "functional, organism-based"}}, "note": "Calls of active or inactive are those of the source. The calls are words filed in the database; no cut-off is given here."}
{"smiles": "COC(=O)[C@H](Cc1c[nH]c2ccccc12)NC(=O)c1cccc(C(=O)N[C@@H](Cc2c[nH]c3ccccc23)C(=O)OC)n1", "values": [{"measurement": "MBC", "setting": "[1]", "value": 128, "unit": "µg/mL"}, {"measurement": "MIC", "setting": "[1]", "value": 32, "unit": "µg/mL"}, {"measurement": "Activity", "setting": "[2]", "value": "inactive"}, {"measurement": "MBC", "setting": "[3]", "value": 128, "unit": "µg/mL"}, {"measurement": "MIC", "setting": "[3]", "value": 32, "unit": "µg/mL"}, {"measurement": "Activity", "setting": "[4]", "value": "inactive"}, {"measurement": "MFC", "setting": "[5]", "value": 128, "unit": "µg/mL"}, {"measurement": "MIC", "setting": "[5]", "value": 32, "unit": "µg/mL"}, {"measurement": "Activity", "setting": "[6]", "value": "inactive"}, {"measurement": "MIC", "setting": "[7]", "value": 64, "unit": "µg/mL"}, {"measurement": "Activity", "setting": "[8]", "value": "inactive"}, {"measurement": "Activity", "setting": "[9]", "value": "inactive"}, {"measurement": "Activity", "setting": "[10]", "value": "inactive"}, {"measurement": "Activity", "setting": "[11]", "value": "inactive"}, {"measurement": "MIC", "setting": "[12]", "value": 64, "unit": "µg/mL"}, {"measurement": "Activity", "setting": "[13]", "value": "inactive"}, {"measurement": "MIC50", "setting": "[14]", "value": "> 128", "unit": "µg/mL"}, {"measurement": "MIC90", "setting": "[14]", "value": "> 128", "unit": "µg/mL"}, {"measurement": "Activity", "setting": "[15]", "value": "inactive"}, {"measurement": "MFC", "setting": "[16]", "value": 128, "unit": "µg/mL"}, {"measurement": "MIC", "setting": "[16]", "value": 32, "unit": "µg/mL"}, {"measurement": "MFC", "setting": "[17]", "value": 128, "unit": "µg/mL"}, {"measurement": "MIC", "setting": "[17]", "value": 32, "unit": "µg/mL"}, {"measurement": "MBC", "setting": "[18]", "value": "> 128", "unit": "µg/mL"}, {"measurement": "MIC", "setting": "[18]", "value": 32, "unit": "µg/mL"}, {"measurement": "MIC", "setting": "[19]", "value": 64, "unit": "µg/mL"}, {"measurement": "Activity", "setting": "[20]", "value": "inactive"}, {"measurement": "Activity", "setting": "[21]", "value": "inactive"}, {"measurement": "Activity", "setting": "[22]", "value": "inactive"}, {"measurement": "Activity", "setting": "[23]", "value": "inactive"}, {"measurement": "MFC", "setting": "[24]", "value": 128, "unit": "µg/mL"}, {"measurement": "MIC", "setting": "[24]", "value": 32, "unit": "µg/mL"}, {"measurement": "Activity", "setting": "[25]", "value": "inactive"}, {"measurement": "Activity", "setting": "[26]", "value": "inactive"}]}
